Results published in ChEMBL document CHEMBL3991601, “The target landscape of clinical kinase drugs” (Science, 2017).
Calls of active or inactive are those of the source.

Experiments:
[1] = biological target: T1, Bifunctional phosphoribosylaminoimidazole carboxylase/phosphoribosylaminoimidazole succinocarboxamide synthetase (Homo sapiens, UniProt P22234)
T1 sequence (P22234 whole entry): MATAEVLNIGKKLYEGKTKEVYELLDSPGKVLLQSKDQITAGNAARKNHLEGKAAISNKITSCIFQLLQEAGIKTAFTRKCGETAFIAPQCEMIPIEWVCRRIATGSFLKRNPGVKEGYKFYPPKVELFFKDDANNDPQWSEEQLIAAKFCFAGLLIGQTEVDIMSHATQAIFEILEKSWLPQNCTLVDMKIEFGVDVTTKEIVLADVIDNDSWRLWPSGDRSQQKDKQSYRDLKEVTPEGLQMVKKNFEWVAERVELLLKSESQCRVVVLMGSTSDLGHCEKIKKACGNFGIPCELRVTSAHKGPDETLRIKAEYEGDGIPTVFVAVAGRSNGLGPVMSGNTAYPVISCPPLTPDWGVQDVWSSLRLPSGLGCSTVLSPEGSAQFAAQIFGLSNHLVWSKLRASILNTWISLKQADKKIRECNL

[2] = biological target: T2, Dual specificity mitogen-activated protein kinase kinase 3 (Homo sapiens, UniProt P46734)
T2 sequence (P46734 whole entry): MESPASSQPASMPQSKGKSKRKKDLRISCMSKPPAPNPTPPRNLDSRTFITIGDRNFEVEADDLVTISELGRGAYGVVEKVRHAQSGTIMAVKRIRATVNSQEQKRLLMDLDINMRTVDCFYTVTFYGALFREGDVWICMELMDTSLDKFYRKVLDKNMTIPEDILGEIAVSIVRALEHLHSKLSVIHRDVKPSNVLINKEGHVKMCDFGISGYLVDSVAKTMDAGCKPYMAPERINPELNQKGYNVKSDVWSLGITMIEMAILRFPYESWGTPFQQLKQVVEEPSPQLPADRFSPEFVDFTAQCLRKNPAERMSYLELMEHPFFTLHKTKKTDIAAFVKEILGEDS

ADP/ATP translocase 3 = biological target: T3, ADP/ATP translocase 3 (Homo sapiens, UniProt P12236)
T3 sequence (P12236 whole entry): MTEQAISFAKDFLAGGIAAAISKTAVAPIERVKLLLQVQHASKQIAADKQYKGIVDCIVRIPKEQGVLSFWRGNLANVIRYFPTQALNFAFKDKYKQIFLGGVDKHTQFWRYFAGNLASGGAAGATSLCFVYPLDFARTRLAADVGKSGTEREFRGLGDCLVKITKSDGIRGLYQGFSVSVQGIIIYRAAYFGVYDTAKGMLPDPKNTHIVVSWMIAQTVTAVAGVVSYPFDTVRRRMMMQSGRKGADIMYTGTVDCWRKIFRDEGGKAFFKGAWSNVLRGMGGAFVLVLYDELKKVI

[3] = biological target: Mitogen-activated protein kinase 10 (Homo sapiens, UniProt P53779)
Chain of Mitogen-activated protein kinase 10 (P53779 whole entry): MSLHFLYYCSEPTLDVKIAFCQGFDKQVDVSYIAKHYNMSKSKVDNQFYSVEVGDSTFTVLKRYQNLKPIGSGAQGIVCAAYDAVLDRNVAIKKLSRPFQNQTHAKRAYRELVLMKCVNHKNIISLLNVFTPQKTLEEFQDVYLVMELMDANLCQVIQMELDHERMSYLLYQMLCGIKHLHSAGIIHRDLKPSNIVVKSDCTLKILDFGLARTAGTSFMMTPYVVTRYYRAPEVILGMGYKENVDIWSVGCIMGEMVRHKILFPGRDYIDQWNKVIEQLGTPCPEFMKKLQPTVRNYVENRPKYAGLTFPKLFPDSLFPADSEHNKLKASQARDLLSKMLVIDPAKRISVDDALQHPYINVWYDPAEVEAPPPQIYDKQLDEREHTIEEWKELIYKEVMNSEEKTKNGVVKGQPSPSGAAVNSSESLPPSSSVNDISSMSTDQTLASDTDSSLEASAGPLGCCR

[4] = biological target: Inosine-5'-monophosphate dehydrogenase 2 (Homo sapiens, UniProt P12268)
[5] = biological target: T4, Cytochrome c1, heme protein, mitochondrial (Homo sapiens, UniProt P08574)
T4 sequence (P08574 whole entry): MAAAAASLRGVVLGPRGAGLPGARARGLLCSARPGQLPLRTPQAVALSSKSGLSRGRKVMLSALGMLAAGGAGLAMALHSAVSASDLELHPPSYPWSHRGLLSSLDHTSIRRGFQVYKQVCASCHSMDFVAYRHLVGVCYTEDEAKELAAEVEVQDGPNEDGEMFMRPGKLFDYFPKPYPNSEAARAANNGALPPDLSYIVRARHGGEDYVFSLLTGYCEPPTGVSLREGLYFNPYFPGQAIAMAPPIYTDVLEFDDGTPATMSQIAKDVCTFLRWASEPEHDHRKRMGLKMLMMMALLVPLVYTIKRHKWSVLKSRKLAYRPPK

[6] = biological target: T5, Interleukin-1 receptor-associated kinase 4 (Homo sapiens, UniProt Q9NWZ3)
T5 sequence (Q9NWZ3 whole entry): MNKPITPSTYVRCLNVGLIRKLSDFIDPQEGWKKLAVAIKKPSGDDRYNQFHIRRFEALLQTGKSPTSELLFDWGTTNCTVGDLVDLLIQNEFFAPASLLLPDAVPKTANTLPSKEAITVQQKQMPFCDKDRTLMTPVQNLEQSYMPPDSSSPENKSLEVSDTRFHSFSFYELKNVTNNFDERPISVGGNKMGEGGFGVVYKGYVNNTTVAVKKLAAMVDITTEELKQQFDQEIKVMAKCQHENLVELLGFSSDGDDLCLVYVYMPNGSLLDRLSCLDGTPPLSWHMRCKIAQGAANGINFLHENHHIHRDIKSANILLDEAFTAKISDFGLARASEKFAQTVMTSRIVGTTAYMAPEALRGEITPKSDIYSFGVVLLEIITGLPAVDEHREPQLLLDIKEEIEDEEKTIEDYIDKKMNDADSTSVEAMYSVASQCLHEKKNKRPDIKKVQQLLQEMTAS
Further: in the data inactive means no Kd found up to 30 µM.

Kd [1]	Kd [2]	Kd (ADP/ATP translocase 3)	Kd [3]	Kd [4]	Kd [5]	Kd [6]	SMILES
> 30 µM (inactive)	> 30 µM (inactive)	> 30 µM (inactive)	> 30 µM (inactive)	> 30 µM (inactive)	> 30 µM (inactive)	> 30 µM (inactive)	Cn1ncc(Cl)c1-c1cc(C(=O)N[C@H](CN)Cc2cccc(F)c2)sc1Cl [AFURESERTIB]
> 30 µM (inactive)	> 30 µM (inactive)	> 30 µM (inactive)	> 30 µM (inactive)	> 30 µM (inactive)	> 30 µM (inactive)	> 30 µM (inactive)	COC(=O)N[C@@H](C)CNc1nccc(-c2cn(C(C)C)nc2-c2cc(Cl)cc(NS(C)(=O)=O)c2F)n1 [ENCORAFENIB]
> 30 µM (inactive)	> 30 µM (inactive)	> 30 µM (inactive)	> 30 µM (inactive)	> 30 µM (inactive)	> 30 µM (inactive)	> 30 µM (inactive)	CCCS(=O)(=O)Nc1ccc(F)c(C(=O)c2c[nH]c3ncc(-c4ccc(Cl)cc4)cc23)c1F [VEMURAFENIB]
> 30 µM (inactive)	> 30 µM (inactive)	> 30 µM (inactive)	> 30 µM (inactive)	> 30 µM (inactive)	> 30 µM (inactive)	> 30 µM (inactive)	CCN1CCN(Cc2ccc(-c3cc4c(N[C@H](C)c5ccccc5)ncnc4[nH]3)cc2)CC1 [AEE-788]
> 30 µM (inactive)	> 30 µM (inactive)	> 30 µM (inactive)	> 30 µM (inactive)	> 30 µM (inactive)	> 30 µM (inactive)	> 30 µM (inactive)	CC[C@H](Nc1ncnc2[nH]cnc12)c1nc2cccc(F)c2c(=O)n1-c1ccccc1 [IDELALISIB]
> 30 µM (inactive)	> 30 µM (inactive)	> 30 µM (inactive)	> 30 µM (inactive)	> 30 µM (inactive)	> 30 µM (inactive)	> 30 µM (inactive)	CNS(=O)(=O)Nc1nccc(Cc2c(C)c3ccc(Oc4ncccn4)cc3oc2=O)c1F [AVUTOMETINIB]
> 30 µM (inactive)	> 30 µM (inactive)	> 30 µM (inactive)	3.08 µM (active)	> 30 µM (inactive)	> 30 µM (inactive)	> 30 µM (inactive)	O=C(O)[C@]1(Cc2cccc(Nc3nccs3)n2)CC[C@@H](Oc2cccc(Cl)c2F)CC1 [MK-5108]
> 30 µM (inactive)	> 30 µM (inactive)	> 30 µM (inactive)	> 30 µM (inactive)	> 30 µM (inactive)	> 30 µM (inactive)	> 30 µM (inactive)	CC(=O)Nc1cccc(-n2c(=O)n(C3CC3)c(=O)c3c(Nc4ccc(I)cc4F)n(C)c(=O)c(C)c32)c1 [TRAMETINIB]
> 30 µM (inactive)	> 30 µM (inactive)	> 30 µM (inactive)	> 30 µM (inactive)	> 30 µM (inactive)	> 30 µM (inactive)	> 30 µM (inactive)	CO[C@H]1C[C@@H]2CC[C@@H](C)[C@@](O)(O2)C(=O)C(=O)N2CCCC[C@H]2C(=O)O[C@H]([C@H](C)C[C@@H]2CC[C@@H](OCCO)[C@H](OC)C2)CC(=O)[C@H](C)/C=C(\C)[C@@H](O)[C@@H](OC)C(=O)[C@H](C)C[C@H](C)/C=C/C=C/C=C/1C [EVEROLIMUS]
> 30 µM (inactive)	> 30 µM (inactive)	> 30 µM (inactive)	> 30 µM (inactive)	> 30 µM (inactive)	> 30 µM (inactive)	> 30 µM (inactive)	CN1N=C(N)c2cn([C@@H]3O[C@H](COP(=O)(O)O)[C@@H](O)[C@H]3O)c3ncnc1c23 [TRICIRIBINE PHOSPHATE]
> 30 µM (inactive)	> 30 µM (inactive)	> 30 µM (inactive)	> 30 µM (inactive)	> 30 µM (inactive)	> 30 µM (inactive)	> 30 µM (inactive)	OCCn1cc(-c2cnc3nnn(Cc4ccc5ncccc5c4)c3n2)cn1 [PF-04217903]
> 30 µM (inactive)	> 30 µM (inactive)	> 30 µM (inactive)	> 30 µM (inactive)	> 30 µM (inactive)	> 30 µM (inactive)	> 30 µM (inactive)	O=c1sn(-c2cccc3ccccc23)c(=O)n1Cc1ccccc1 [TIDEGLUSIB]
> 30 µM (inactive)	> 30 µM (inactive)	> 30 µM (inactive)	> 30 µM (inactive)	> 30 µM (inactive)	> 30 µM (inactive)	> 30 µM (inactive)	CCc1cnn2c(NCc3ccc[n+]([O-])c3)cc(N3CCCC[C@H]3CCO)nc12 [DINACICLIB]
> 30 µM (inactive)	> 30 µM (inactive)	> 30 µM (inactive)	> 30 µM (inactive)	> 30 µM (inactive)	> 30 µM (inactive)	> 30 µM (inactive)	CC(C)Nc1cc(-c2c[nH]c(C(=O)N[C@H](CO)c3cccc(Cl)c3)c2)c(Cl)cn1 [ULIXERTINIB]
> 30 µM (inactive)	> 30 µM (inactive)	> 30 µM (inactive)	> 30 µM (inactive)	> 30 µM (inactive)	> 30 µM (inactive)	> 30 µM (inactive)	C1=C/COCc2cc(ccc2OCCN2CCCC2)Nc2nccc(n2)-c2cccc(c2)COC/1 [PACRITINIB]
> 30 µM (inactive)	> 30 µM (inactive)	> 30 µM (inactive)	> 30 µM (inactive)	> 30 µM (inactive)	> 30 µM (inactive)	> 30 µM (inactive)	CNC(=O)c1ccc(-c2cnc3ncc(Cc4ccc5ncccc5c4)n3n2)cc1F [CAPMATINIB]
> 30 µM (inactive)	> 30 µM (inactive)	> 30 µM (inactive)	> 30 µM (inactive)	> 30 µM (inactive)	> 30 µM (inactive)	> 30 µM (inactive)	CNC(=O)CN1CCC(Oc2cc3c(Nc4cccc(Cl)c4F)ncnc3cc2OC)CC1 [SAPITINIB]
> 30 µM (inactive)	> 30 µM (inactive)	> 30 µM (inactive)	–	> 30 µM (inactive)	> 30 µM (inactive)	> 30 µM (inactive)	COc1cc2nccc(Oc3ccc(NC(=O)NC4CC4)c(Cl)c3)c2cc1C(N)=O [LENVATINIB]
> 30 µM (inactive)	> 30 µM (inactive)	> 30 µM (inactive)	> 30 µM (inactive)	> 30 µM (inactive)	> 30 µM (inactive)	–	Cc1cc(Nc2cc(N3CCN(C)CC3)nc(/C=C/c3ccccc3)n2)n[nH]1 [ENMD-2076]

SMILES	Kd [1]	Kd [2]	Kd (ADP/ATP translocase 3)	Kd [3]	Kd [4]	Kd [5]	Kd [6]
Cc1cc(-c2cc(O)ccc2Cl)cc2nnc(Nc3ccc(OCCN4CCCC4)cc3)nc12	> 30 µM (inactive)	> 30 µM (inactive)	> 30 µM (inactive)	> 30 µM (inactive)	> 30 µM (inactive)	> 30 µM (inactive)	> 30 µM (inactive)
CN1CC[C@@H](c2c(O)cc(O)c3c(=O)cc(-c4ccccc4Cl)oc23)[C@@H]1CO	> 30 µM (inactive)	> 30 µM (inactive)	> 30 µM (inactive)	> 30 µM (inactive)	> 30 µM (inactive)	> 30 µM (inactive)	> 30 µM (inactive)
